This note sets out measurements from patent EP0938471B1, “THE PREPARATION AND USE OF ORTHO-SULFONAMIDO ARYL HYDROXAMIC ACIDS AS MATRIX METALLOPROTEINASE AND TACE INHIBITORS” (priority 1996, dated 1998).

Each structure is given as a SMILES string. Read-outs that look alike come from different tables or passages of the source.

Assay type in all cases: biochemical
Experiment [1] concerns the target TACE (Homo sapiens, UniProt P78536). Briefly: TACE inhibition (fluorescent peptidyl substrate). Conditions: for inhibition at 1 µM: at 1µM concentration.
Protocol: Using 96-well black microtiter plates, each well receives a solution composed of 10 µL TACE (Immunex, final concentration 1µg/mL), 70µL Tris buffer, pH 7.4 containing 10% glycerol (final concentration 10 mM), and 10 µL of test compound solution in DMSO (final concentration 1µM, DMSO concentration <1%) and incubated for 10 minutes at room temperature.
The reaction is read (excitation 340 nm, emission 420 nm) for 10 min. and the increase in fluorescence over time is plotted as a linear line. The slope of the line is calculated and represents the reaction rate.
The linearity of the reaction rate is confirmed (r^2 >0.85). The mean (x±sem) of the control rate is calculated and compared for statistical significance (p<0.05) with drug-treated rates using Dunnett's multiple comparison test.
In experiment [2] the target is MMP-13 (Homo sapiens, UniProt P45452). Briefly: MMP-13 inhibition (thiopeptide or fluorescent peptide substrate assay).
Experiment [3] concerns the target T1, MMP-1 (Homo sapiens, UniProt P03956).
T1 sequence (P03956 100-469): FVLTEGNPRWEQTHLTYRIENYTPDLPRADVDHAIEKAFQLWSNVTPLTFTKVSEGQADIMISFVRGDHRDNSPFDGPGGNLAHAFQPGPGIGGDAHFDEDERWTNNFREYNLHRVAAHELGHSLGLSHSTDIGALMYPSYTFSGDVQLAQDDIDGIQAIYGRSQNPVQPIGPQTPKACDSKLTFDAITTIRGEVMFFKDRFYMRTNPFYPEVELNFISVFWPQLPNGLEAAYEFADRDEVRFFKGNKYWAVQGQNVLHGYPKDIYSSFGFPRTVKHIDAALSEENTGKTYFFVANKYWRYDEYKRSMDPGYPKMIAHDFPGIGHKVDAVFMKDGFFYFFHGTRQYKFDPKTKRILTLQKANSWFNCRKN
Briefly: MMP-1 inhibition (thiopeptide or fluorescent peptide substrate assay).
Protocol: The enzyme activity is measured by the rate of the color increase. The thiopeptide substrate is made up fresh as a 20 mM stock in 100% DMSO and the DTNB is dissolved in 100% DMSO as a 100 mM stock and stored in the dark at room temperature. Both the substrate and DTNB are diluted together to 1 mM with substrate buffer (50 mM HEPES pH 7.5, 5 mM CaCl2) before use. The stock of enzyme is diluted with assay buffer (50 mM HEPES, pH 7.5, 5 mM CaCl2, 0.02% Brij) to the desired final concentration.
Alternatively, a fluorescent peptide substrate is used. In this assay, the peptide substrate contains a fluorescent group and a quenching group. Upon cleavage of the substrate by an MMP, the fluorescence that is generated is quantitated on the fluorescence plate reader. The assay is run in HCBC assay buffer (50mM HEPES, pH 7.0, 5 mM Ca^+2, 0.02% Brij, 0.5% Cysteine), with human recombinant MMP-1, MMP-9, or MMP-13. The substrate is dissolved in methanol and stored frozen in 1 mM aliquots. For the assay, substrate and enzymes are diluted in HCBC buffer to the desired concentrations. Compounds are added to the 96 well plate containing enzyme and the reaction is started by the addition of substrate.
For either the thiopeptide or fluorescent peptide assays, the slope of the line is calculated and represents the reaction rate. The linearity of the reaction rate is confirmed (r^2 >0.85). The mean (x±sem) of the control rate is calculated and compared for statistical significance (p<0.05) with drug-treated rates using Dunnett's multiple comparison test.

In experiment [4] the target is MMP-9 (Homo sapiens, UniProt P14780). Briefly: MMP-9 inhibition (thiopeptide or fluorescent peptide substrate assay).
MMP-9, sequence (P14780 94-707): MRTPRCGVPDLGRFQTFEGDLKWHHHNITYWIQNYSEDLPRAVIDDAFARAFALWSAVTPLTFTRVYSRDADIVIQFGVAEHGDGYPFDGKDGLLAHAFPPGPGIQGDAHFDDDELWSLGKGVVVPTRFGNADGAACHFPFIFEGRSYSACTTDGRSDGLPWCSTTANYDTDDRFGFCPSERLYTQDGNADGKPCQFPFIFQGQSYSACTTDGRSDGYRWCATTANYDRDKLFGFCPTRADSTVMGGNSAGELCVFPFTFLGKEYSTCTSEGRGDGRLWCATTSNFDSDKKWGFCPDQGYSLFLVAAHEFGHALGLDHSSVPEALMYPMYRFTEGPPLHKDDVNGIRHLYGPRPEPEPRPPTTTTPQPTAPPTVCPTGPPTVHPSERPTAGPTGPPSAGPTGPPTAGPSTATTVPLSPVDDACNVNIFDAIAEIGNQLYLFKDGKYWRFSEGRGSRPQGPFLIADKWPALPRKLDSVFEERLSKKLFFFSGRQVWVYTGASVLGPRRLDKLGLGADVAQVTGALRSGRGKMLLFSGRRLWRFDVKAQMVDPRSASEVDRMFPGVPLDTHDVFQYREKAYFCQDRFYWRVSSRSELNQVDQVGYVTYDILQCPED
Protocol: The enzyme activity is measured by the rate of the color increase. The thiopeptide substrate is made up fresh as a 20 mM stock in 100% DMSO and the DTNB is dissolved in 100% DMSO as a 100 mM stock and stored in the dark at room temperature. Both the substrate and DTNB are diluted together to 1 mM with substrate buffer (50 mM HEPES pH 7.5, 5 mM CaCl2) before use. […] Alternatively, a fluorescent peptide substrate is used. In this assay, the peptide substrate contains a fluorescent group and a quenching group. Upon cleavage of the substrate by an MMP, the fluorescence that is generated is quantitated on the fluorescence plate reader. […] The substrate is dissolved in methanol and stored frozen in 1 mM aliquots. For the assay, substrate and enzymes are diluted in HCBC buffer to the desired concentrations. Compounds are added to the 96 well plate containing enzyme and the reaction is started by the addition of substrate. […] For either the thiopeptide or fluorescent peptide assays, the slope of the line is calculated and represents the reaction rate. […] The mean (x±sem) of the control rate is calculated and compared for statistical significance (p<0.05) with drug-treated rates using Dunnett's multiple comparison test.

TACE, sequence (P78536 215-824): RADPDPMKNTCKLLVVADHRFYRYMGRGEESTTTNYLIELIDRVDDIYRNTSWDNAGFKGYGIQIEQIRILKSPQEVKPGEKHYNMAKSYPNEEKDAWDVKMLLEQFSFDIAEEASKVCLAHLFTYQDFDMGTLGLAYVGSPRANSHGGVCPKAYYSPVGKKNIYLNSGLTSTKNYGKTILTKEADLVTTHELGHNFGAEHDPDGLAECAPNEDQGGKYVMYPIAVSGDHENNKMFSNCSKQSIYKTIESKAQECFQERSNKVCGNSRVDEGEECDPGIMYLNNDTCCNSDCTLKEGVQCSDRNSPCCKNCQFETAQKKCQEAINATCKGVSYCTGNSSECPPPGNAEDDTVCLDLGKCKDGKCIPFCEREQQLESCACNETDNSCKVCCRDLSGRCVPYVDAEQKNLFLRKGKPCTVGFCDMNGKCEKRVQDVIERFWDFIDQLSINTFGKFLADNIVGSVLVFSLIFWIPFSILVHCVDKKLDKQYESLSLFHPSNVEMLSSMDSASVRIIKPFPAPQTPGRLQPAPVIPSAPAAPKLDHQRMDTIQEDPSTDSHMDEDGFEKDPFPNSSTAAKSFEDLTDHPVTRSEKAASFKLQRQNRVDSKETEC

As to `COc1ccc(S(=O)(=O)N(Cc2cccnc2)c2c(Br)cc(C)cc2C(=O)NO)cc1` [Example 138, 3-Bromo-N-hydroxy-2-[(4-methoxy-benzenesulfonyl)-pyridin-3-ylmethyl-amino]-5-methyl-benzamide], the 50% inhibitory concentration (IC50) amounted to 0.215 µM in experiment [1] (read-out: TACE IC50), 0.057 µM in experiment [2] (read-out: MMP-13 IC50), 0.258 µM in experiment [3] (read-out: MMP-1 IC50) and 0.077 µM in experiment [4] (read-out: MMP-9 IC50).

For the molecule `COc1ccc(S(=O)(=O)N(Cc2ccccc2)c2c(C(=O)NO)cccc2[N+](=O)[O-])cc1` [Example 170, 2-[Benzyl-(4-methoxy-benzenesulfonyl)-amino]-N-hydroxy-3-nitro-benzamide], the half-inhibitory concentration (IC50) in experiment [1] (read-out: TACE IC50) came out at 0.176 µM; in experiment [2] (read-out: MMP-13 IC50) it was 0.039 µM; in experiment [3] (read-out: MMP-1 IC50) it was 0.347 µM; in experiment [4] (read-out: MMP-9 IC50) it was 0.012 µM.

Consider `COc1ccc(S(=O)(=O)N(Cc2ccccc2)c2c(OCCCO)cccc2C(=O)NO)cc1` [Example 174, 2-[Benzyl-(4-methoxy-benzenesulfonyl)-amino]-N-hydroxy 3-(3-hydroxy-propoxy)-benzamide], for which, in experiment [1], the inhibition at 1 µM was 50%. In addition, the values for the 50% inhibitory concentration (IC50) in experiment [2] (read-out: MMP-13 IC50), in experiment [3] (read-out: MMP-1 IC50) and in experiment [4] (read-out: MMP-9 IC50) were 0.071 µM, 0.323 µM and 0.016 µM, respectively.

Regarding `COc1ccc(S(=O)(=O)N(Cc2cccnc2)c2c(C)cc(-c3cccs3)cc2C(=O)NO)cc1` [Example 175, N-Hydroxy-2-[(4-methoxybenzenesulfonyl)-pyridin-3-ylmethyl-amino]-3-methyl-5-thiophen-2-yl benzamide], the half-inhibitory concentration (IC50) in experiment [1] (read-out: TACE IC50) stood at 0.057 µM; in experiment [2] (read-out: MMP-13 IC50), 0.004 µM; in experiment [3] (read-out: MMP-1 IC50) it was 0.09 µM; in experiment [4] (read-out: MMP-9 IC50), 0.007 µM.

For `COc1ccc(S(=O)(=O)N(Cc2ccccc2)c2c(C#N)cc(C)cc2C(=O)NO)cc1` [Example 179], the inhibition at 1 µM in experiment [1] was found to be 64%. The values for the IC50 in experiment [2] (read-out: MMP-13 IC50), in experiment [3] (read-out: MMP-1 IC50) and in experiment [4] (read-out: MMP-9 IC50) were 0.053 µM, 0.68 µM and 0.04 µM, respectively.

`COc1ccc(S(=O)(=O)N(Cc2cccnc2)c2c(C(=O)NO)cc(C)cc2-c2ccco2)cc1` [Example 186, 3-Furan-2-yl-N-hydroxy-2-[(4-methoxybenzenesulfonyl)-pyridin-3-ylmethylamino]-5-methyl-benzamide]: the half-maximal inhibitory concentration (IC50) stood at 0.061 µM in experiment [1], 0.0014 µM in experiment [2], 0.037 µM in experiment [3] (read-out: MMP-1 IC50) and 0.013 µM in experiment [4] (read-out: MMP-9 IC50).

Consider `CCN(CC)Cc1cccc(C(=O)NO)c1N(C)S(=O)(=O)c1ccc(OC)cc1` [Example 191, 3-Diethylaminomethyl-N-hydroxy-2-[(4-methoxybenzenesulfonyl)-methylamino]benzamide], for which the half-inhibitory concentration (IC50) came out at 0.21 µM in experiment [1] (read-out: TACE IC50), 0.067 µM in experiment [2] (read-out: MMP-13 IC50), 1.24 µM in experiment [3] (read-out: MMP-1 IC50) and 0.01 µM in experiment [4] (read-out: MMP-9 IC50).

Molecule `COc1ccc(S(=O)(=O)N(Cc2ccccc2)c2c(OC(C)(C)C(=O)NO)cccc2C(=O)NO)cc1` [Example 197] gave an inhibition at 1 µM in experiment [1] of 32%. Also, the IC50 in experiment [2] (read-out: MMP-13 IC50) was determined as 0.006 µM; in experiment [3] (read-out: MMP-1 IC50), 0.711 µM; in experiment [4] (read-out: MMP-9 IC50), 0.005 µM.

Take `COc1ccc(S(=O)(=O)N(Cc2ccccc2)c2c(Br)cccc2C(=O)NO)cc1` [Example 201, 3-Bromo-2-[benzyl-(4-methoxybenzenesulfonyl)amino]-N-hydroxy-benzamide]: the IC50 in experiment [1] (read-out: TACE IC50) is 1 µM; in experiment [2] (read-out: MMP-13 IC50), 0.027 µM; in experiment [3] (read-out: MMP-1 IC50), 0.104 µM; in experiment [4] (read-out: MMP-9 IC50) it was 0.011 µM.

Take `CCCCCCCCN(C)C(=O)C=Cc1cc(C)c(N(C)S(=O)(=O)c2ccc(OC)cc2)c(C(=O)NO)c1` [Example 207, N-Hydroxy-2-[(4-methoxy-benzenesulfonyl)-methyl-amino]-3-methyl-5-[2-(methyl-octyl-carbamoyl)-vinyl]-benzamide]: the 50% inhibitory concentration (IC50) came to 0.375 µM in experiment [1] (read-out: TACE IC50), 0.0025 µM in experiment [2] (read-out: MMP-13 IC50), 1.12 µM in experiment [3] (read-out: MMP-1 IC50) and 0.002 µM in experiment [4] (read-out: MMP-9 IC50).

As for `CCCCCCCCN(C)C(=O)CCc1cc(C)c(N(C)S(=O)(=O)c2ccc(OC)cc2)c(C(=O)NO)c1` [Example 212, N-Hydroxy-2-[(4-methoxy-benzenesulfonyl)-methyl-amino]-3-methyl-5-[2-(methyl-octyl-carbamoyl)-ethyl]-benzamide], the IC50 in experiment [1] (read-out: TACE IC50) is 0.314 µM; in experiment [2] (read-out: MMP-13 IC50), 0.011 µM; in experiment [3] (read-out: MMP-1 IC50) it was 0.415 µM; in experiment [4] (read-out: MMP-9 IC50) it was 0.0052 µM.

Turning to `COc1ccc(S(=O)(=O)N(C)c2c(C)cc(C=CC(=O)N(C)C)cc2C(=O)O)cc1` [Example 214, 5-(2-Dimethylcarbamoyl-vinyl)-2-[(4-methoxy-benzenesulfonyl)-methyl-amino]-3-methyl-benzoic acid], the concentration for half-maximal inhibition (IC50) is 0.232 µM in experiment [1], 0.019 µM in experiment [2], 0.423 µM in experiment [3] and 0.0064 µM in experiment [4].

With `CCN(Cc1ccncc1)C(=O)C=Cc1cc(C)c(N(C)S(=O)(=O)c2ccc(OC)cc2)c(C(=O)NO)c1` [Example 219, 5-[2-(Ethyl-pyridin-4-ylmethyl-carbamoyl)-vinyl]-N-hydroxy-2-[(4-methoxy-benzenesulfonyl)-methyl-amino]-3-methyl-benzamide], the IC50 in experiment [1] (read-out: TACE IC50) worked out at 0.548 µM; in experiment [2] (read-out: MMP-13 IC50) it was 0.0058 µM; in experiment [3] (read-out: MMP-1 IC50), 0.29 µM; in experiment [4] (read-out: MMP-9 IC50), 0.0067 µM.

For `CCCCCCCCN(C)C(=O)C=Cc1cc(C)c(N(Cc2cccnc2)S(=O)(=O)c2ccc(OC)cc2)c(C(=O)NO)c1` [Example 224, N-Hydroxy-2-[(4-methoxy-benzenesulfonyl)-pyridin-3-ylmethyl-amino]-3-methyl-5-[2-(methyl-octyl-carbamoyl)-vinyl]-benzamide], the IC50 in experiment [1] (read-out: TACE IC50) was found to be 0.715 µM; in experiment [2] (read-out: MMP-13 IC50), 0.014 µM; in experiment [3] (read-out: MMP-1 IC50), 0.957 µM; in experiment [4] (read-out: MMP-9 IC50), 0.011 µM.

Regarding `COc1ccc(S(=O)(=O)N(Cc2cccnc2)c2c(C)cc(C=CC(=O)N(C)C)cc2C(=O)NO)cc1` [Example 227, 5-(2-Dimethylcarbamoyl-vinyl)-N-hydroxy-2-[(4-methoxy-benzenesulfonyl)-pyridin-3-ylmethyl-amino]-3-methyl-benzamide], the 50% inhibitory concentration (IC50) is 0.446 µM in experiment [1] (read-out: TACE IC50), 0.0041 µM in experiment [2] (read-out: MMP-13 IC50), 0.193 µM in experiment [3] (read-out: MMP-1 IC50) and 0.0031 µM in experiment [4] (read-out: MMP-9 IC50).

In experiment [1], `CCN(C(=O)C=Cc1cc(C)c(N(Cc2cccnc2)S(=O)(=O)c2ccc(OC)cc2)c(C(=O)NO)c1)c1ccccc1` [Example 230, 5-[2-(Ethyl-phenyl-carbamoyl)-vinyl]-N-hydroxy-2-[(4-methoxy-benzenesulfonyl)-pyridin-3-ylmethyl-amino]-3-methyl-benzamide] had an inhibition at 1 µM of 47%. For the same molecule, the IC50 was found to be 0.0019 µM in experiment [2] (read-out: MMP-13 IC50), 0.02 µM in experiment [3] (read-out: MMP-1 IC50) and 0.0024 µM in experiment [4] (read-out: MMP-9 IC50).

`C=CCN(CC=C)C(=O)C=Cc1cc(C)c(N(Cc2cccnc2)S(=O)(=O)c2ccc(OC)cc2)c(C(=O)NO)c1` [Example 233, 5-(2-Diallylcarbamoyl-vinyl)-N-hydroxy-2-[(4-methoxy-benzenesulfonyl)-pyridin-3-ylmethyl-amino]-3-methyl-benzamide]: the IC50 in experiment [1] (read-out: TACE IC50) was determined as 0.45 µM; in experiment [2] (read-out: MMP-13 IC50), 0.0018 µM; in experiment [3] (read-out: MMP-1 IC50), 0.032 µM; in experiment [4] (read-out: MMP-9 IC50), 0.0023 µM.

In the case of `COc1ccc(S(=O)(=O)N(Cc2cccnc2)c2c(C)cc(C=CC(=O)N3CCOCC3)cc2C(=O)NO)cc1` [Example 240], the IC50 in experiment [1] (read-out: TACE IC50) was determined as 0.548 µM; in experiment [2] (read-out: MMP-13 IC50), 0.0016 µM; in experiment [3] (read-out: MMP-1 IC50), 0.086 µM; in experiment [4] (read-out: MMP-9 IC50), 0.0035 µM.

For orientation: IC50 means the concentration needed to halve the response being measured. As usually defined, the inhibition is the relative decrease from the control value, in per cent. Low values mean a weak effect, high ones a strong effect.
